Common to all, as to format: physicochemical
Data set [1] can be described thus: Ball milling of Form I and Form IV: form stability by XRPD. The note with it: for Form: ball milling in 1% Poloxamer 188 water solution (50 mg/mL). As to the method: (§1) Therefore, ball milling of Form I and Form IV was performed to evaluate the form stability and particle size growth. The detailed procedure of ball milling was as follows. • 1. Suspend Form I and Form IV sample in 1% Poloxamer 188 water solution (50 mg/mL), separately. • 2. Add ˜12 mL suspension into a 50-mL tube which contained milling beads (the volume of milling beads is around 30 mL). After 12 mL suspension was added, the liquid surface just covered the beads. • 3. Roll the 50-mL tube (containing beads and suspension) at 5° C., RT and 60° C. with 30 rpm. • 4. Sample ˜0.8 mL suspension at 1, 2, 4, 24 h using 1-mL syringe. • 5. Test XRPD, PSD and PLM for the suspension.
For XRPD analysis, PANalytical X'Pert^3 X-ray powder diffractometer was used.

Data set [2] is described as follows: Ball milling of Form I and Form IV: particle size (PSD). On the procedure:
as §1

Data set [3] can be described thus: Slurry competition of Form I, III, IV and V at high water activity at RT (XRPD of wet cake). The note with it: mixture of Form I. On the procedure:
The detailed procedure was as follows: • 1) Prepare saturated solution with Form I sample (803759-01-A) in three solvent systems. • 2) Add about 10 mg of each form into 1 mL corresponding saturated solution. • 3) Slurry and check the XRPD of the wet cake after one day and six days.

Data set [4] is described as follows: Storage of milled Form I aqueous suspension. The note with it: milled to a very small particle size. As to the method: as §1
Data set [5] can be described thus: Form III samples after drying (XRPD).
Data set [6] can be described thus: Ball milling of Form I and Form IV: aggregation (PLM). The settings on record: after 24 h. As to the method:
as §1
PLM images were captured using Axio Scope A1 microscope from Carl Zeiss German.

Data set [7] can be described thus: Dynamic Vapor Sorption (DVS). The settings on record: 25° C./80% RH. On the procedure: DVS was measured via a SMS (Surface Measurement Systems) DVS Intrinsic. The relative humidity at 25° C. were calibrated against deliquescence point of LiCl, Mg(NO3)2 and KCl.
A short description of data set [8]: VT-XRPD of Form IV and exposure to ambient conditions. As to the method:
2) After heating to 75 and 120° C., pure Form VI was observed. […] Thus, Form IV is believed to be a hydrate. For XRPD analysis, PANalytical X'Pert^3 X-ray powder diffractometer was used.

“Also recorded” adds a separate entry of the source.

Turning to `CC1CC(C)CN(S(=O)(=O)c2ccc3c(c2)C(=NO)c2cc(S(=O)(=O)N4CC(C)CC(C)C4)ccc2C3=NO)C1` (stereo not shown) [Form I, (9E,10E)-2,7-bis((3,5-dimethylpiperidin-1-yl)sulfonyl)anthracene-9,10-dione dioxime], the Form result in data set [1] (5° C., 1 h, listed as Form 1) is recorded as “Form I”; in data set [1] (5° C., 2 h, listed as Form 1), “Form I”; in data set [1] (5° C., 4 h, listed as Form 1) it was “Form I”; in data set [1] (5° C., 24 h, listed as Form 1), “Form I”; in data set [1] (60° C., 1 h, listed as Form 1) it was “Form I”; in data set [1] (60° C., 2 h, listed as Form 1), “Form I”. For the same molecule, the Form entry is “Form I” in data set [1] (60° C., 4 h); “Form I” in data set [1] (60° C., 24 h); “Form I” in data set [1] (RT, 1 h, listed as Form 1); “Form I” in data set [1] (RT, 2 h, listed as Form 1); “Form I” in data set [1] (RT, 4 h, listed as Form 1); “Form I” in data set [1] (RT, 24 h, listed as Form 1). Also, the “D 90” value is on record as 9.4 μm in data set [2] (5° C., 1 h, listed as Form 1); 9.0 μm in data set [2] (5° C., 2 h, listed as Form 1); 5.2 μm in data set [2] (5° C., 4 h, listed as Form 1); 5.6 μm in data set [2] (5° C., 24 h, listed as Form 1); 22.6 μm in data set [2] (60° C., 1 h, listed as Form 1); 6.6 μm in data set [2] (60° C., 2 h, listed as Form 1). Moreover, the “D 90” value is 5.3 μm in data set [2] (60° C., 4 h, listed as Form 1); 2.0 μm in data set [2] (60° C., 24 h, listed as Form 1); 22.4 μm in data set [2] (RT, 1 h, listed as Form 1); 21.4 μm in data set [2] (RT, 2 h, listed as Form 1); 14.2 μm in data set [2] (RT, 4 h, listed as Form 1); 2.8 μm in data set [2] (RT, 24 h, listed as Form 1). In addition, the “Form obtained from slurry competition” value is “New form” in data set [3] (IV and V slurried in ACN/H2O (1:1, v/v) at RT); “Form I” in data set [3] (IV and V slurried in ACN/H2O (1:3, v/v) at RT); “Form IV” in data set [3] (IV and V slurried in H2O at RT, XRPD after one day and six days). In addition, the “Form conversion during storage” value in data set [4] is “started converting to Form IV”. Besides, in data set [4], the “Particle size growth during storage” value is given as “unacceptable particle size growth”.

`CC1CC(C)CN(S(=O)(=O)c2ccc3c(c2)C(=NO)c2cc(S(=O)(=O)N4CC(C)CC(C)C4)ccc2C3=NO)C1` (stereo not shown) [Form III, (9E,10E)-2,7-bis((3,5-dimethylpiperidin-1-yl)sulfonyl)anthracene-9,10-dione dioxime]: the Form conversion result in data set [5] (after exposure to ambient condition at RT) was “Form V”; in data set [5] (after vacuum drying at RT), “converted to Form IV”.

Regarding `CC1CC(C)CN(S(=O)(=O)c2ccc3c(c2)C(=NO)c2cc(S(=O)(=O)N4CC(C)CC(C)C4)ccc2C3=NO)C1` (stereo not shown) [Form IV, (9E,10E)-2,7-bis((3,5-dimethylpiperidin-1-yl)sulfonyl)anthracene-9,10-dione dioxime], the Form result in data set [1] (5° C., 1 h) is recorded as “Form IV”; in data set [1] (5° C., 2 h) it was “Form IV”; in data set [1] (5° C., 4 h), “Form IV”; in data set [1] (5° C., 24 h), “Form IV”; in data set [1] (60° C., 1 h) it was “Form IV”; in data set [1] (60° C., 2 h) it was “form conversion was observed; also recorded: Form I + IV”. Further, the Form entry is reported as “Form IV” in data set [1] (RT, 1 h); “Form IV” in data set [1] (RT, 2 h); “Form IV” in data set [1] (RT, 4 h); “form conversion was observed; also recorded: Amorphous” in data set [1] (RT, 24 h). For the same molecule, the “Form conversion on ball milling” value in data set [1] (milled at elevated temperature (60° C.), time not stated) is “conversion to Form I; also recorded: converted to Form I”. Also, the “D 90” value amounted to 33.7 μm in data set [2] (5° C., 1 h); 17.4 μm in data set [2] (5° C., 2 h); 5.8 μm in data set [2] (5° C., 4 h); 9.8 μm in data set [2] (5° C., 24 h); 3.9 μm in data set [2] (60° C., 1 h); 4.0 μm in data set [2] (60° C., 2 h). In addition, the “D 90” value stood at 2.0 μm in data set [2] (60° C., 4 h); 0.6 μm in data set [2] (60° C., 24 h); 6.6 μm in data set [2] (RT, 1 h); 4.0 μm in data set [2] (RT, 2 h); 3.4 μm in data set [2] (RT, 4 h); 5.8 μm in data set [2] (RT, 24 h). In addition, the Aggregation entry in data set [6] (5° C.) and in data set [6] (RT) was “Aggregation was observed” throughout. Also, the water uptake in data set [7] was 9.1%. In addition, the “Form by VT-XRPD” value in data set [8] (after cooling to 30° C.) is “Form VI was still observed”; in data set [8] (after heating to 75 and 120° C.) it was “pure Form VI”; in data set [8] (at 30° C. under N2), “partially converted to a new form”.

On to `CC1CC(C)CN(S(=O)(=O)c2ccc3c(c2)C(=NO)c2cc(S(=O)(=O)N4CC(C)CC(C)C4)ccc2C3=NO)C1` (stereo not shown) [Form VI, (9E,10E)-2,7-bis((3,5-dimethylpiperidin-1-yl)sulfonyl)anthracene-9,10-dione dioxime], for which, in data set [8] (after exposure to ambient condition), the Form conversion entry is “converted to Form IV quickly”.

The record behind these values is patent publication US20250263391A1, “CRYSTALLINE FORM OF TEGAVIVINT, METHOD OF PREPARATION, AND USE THEREOF” (Iterion Therapeutics, Inc., priority 2020, published 2025).
